# Laboratory results reported in patent US20230416271A1, “HETEROARYLQUINAZOLINE COMPOUNDS AS PROTEIN KINASE INHIBITORS” (CHENGDU CYNOGEN BIO-PHARMACEUTICAL TECHNOLOGY CO., LTD., priority 2020, published 2023).
# What was measured:
# Type in all cases: biochemical
# CDK4/cyclin D3 = CDK4/cyclin D3 (Homo sapiens (Human), UniProt P11802); test: Kinase activity assay (Caliper Mobility Shift Assay), CDK4/cyclin D3; conditions: 10 nM kinase, 250 uM ATP
# Procedure: (§1) The inhibitory effect of compounds against the kinase CDK4/cyclin D3 was detected by Caliper Mobility Shift Assay method. The final concentration of the compounds to be tested was set at 10 concentrations starting from 1 uM by 3-fold serial dilution. 5 μL of compounds at 5-fold final concentration and 10 μL of CDK4/cyclin D3 kinase solution at a final concentration of 10 nM was added to a 384-well reaction plate, respectively. The plate was pre-incubated for 10 min at room temperature (with negative control wells containing 10 uL of kinase buffer and 5 uL of 5% DMSO; positive control wells containing 10 μL of kinase solution and 5 uL of 5% DMSO). The reaction was initiated by adding 10 μL of ATP at a final concentration of 250 uM and the corresponding substrate peptide mixture at room temperature for 150 minutes. 30 uL of stop detection solution containing EDTA was added to stop the kinase reaction. Caliper EZ Reader was used to read the conversion rate. Conversion inhibition rate %=(average conversion rate of positive control %−conversion rate of sample %)/(average conversion rate of positive control %−average conversion rate of negative control %). wherein: negative control wells represent the conversion rate readings of wells without enzymatic activity; positive control wells represent conversion readings for wells with no compound inhibition. The log(inhibitor) vs. response—Variable slope of the analysis software GraphPad Prism 5 was used with log concentration value as the X-axis and the percent inhibition rate as the Y-axis to fit the dose-response curve, the IC50 value of each compound on the enzyme activity was thus obtained. Calculation formula: Y=Bottom+(Top−Bottom)/(1+10^((Log IC50−X)*HillSlope)).
# CDK2/Cyclin A2 = CDK2/Cyclin A2 (Homo sapiens (Human), UniProt P24941); test: Kinase activity assay (Caliper Mobility Shift Assay), CDK2/Cyclin A2
# Procedure: as §1
# (§2) The IC50 values and inhibitory activities of compounds of the present disclosure on CDK6/Cyclin D3, CDK2/Cyclin A2, and CDK9/cyclin T1 were tested in a similar manner.
# CDK6/Cyclin D3 = CDK6/Cyclin D3 (Homo sapiens (Human), UniProt Q00534); test: Kinase activity assay (Caliper Mobility Shift Assay), CDK6/Cyclin D3
# Chain of CDK6/Cyclin D3 (Q00534 whole entry, species assumed): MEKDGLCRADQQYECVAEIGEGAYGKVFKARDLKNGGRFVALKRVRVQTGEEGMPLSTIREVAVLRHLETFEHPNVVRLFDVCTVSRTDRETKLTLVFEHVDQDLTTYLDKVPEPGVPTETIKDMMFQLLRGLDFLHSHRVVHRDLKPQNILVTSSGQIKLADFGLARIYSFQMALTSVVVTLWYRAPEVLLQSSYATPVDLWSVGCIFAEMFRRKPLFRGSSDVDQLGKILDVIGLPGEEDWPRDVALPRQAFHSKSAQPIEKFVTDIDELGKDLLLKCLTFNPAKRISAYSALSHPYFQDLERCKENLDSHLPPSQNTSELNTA
# Chain of CDK6/Cyclin D3 (P30281 whole entry partner, species assumed): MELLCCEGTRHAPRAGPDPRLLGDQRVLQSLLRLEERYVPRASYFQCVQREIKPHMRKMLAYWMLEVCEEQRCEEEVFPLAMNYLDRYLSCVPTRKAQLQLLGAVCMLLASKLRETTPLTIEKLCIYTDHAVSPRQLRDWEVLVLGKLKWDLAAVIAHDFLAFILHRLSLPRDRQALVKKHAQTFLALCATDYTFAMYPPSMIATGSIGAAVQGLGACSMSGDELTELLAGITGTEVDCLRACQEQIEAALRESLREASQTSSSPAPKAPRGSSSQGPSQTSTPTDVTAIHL
# Procedure: as §1, §2
# Chain of CDK4/cyclin D3 (P11802 whole entry, species assumed): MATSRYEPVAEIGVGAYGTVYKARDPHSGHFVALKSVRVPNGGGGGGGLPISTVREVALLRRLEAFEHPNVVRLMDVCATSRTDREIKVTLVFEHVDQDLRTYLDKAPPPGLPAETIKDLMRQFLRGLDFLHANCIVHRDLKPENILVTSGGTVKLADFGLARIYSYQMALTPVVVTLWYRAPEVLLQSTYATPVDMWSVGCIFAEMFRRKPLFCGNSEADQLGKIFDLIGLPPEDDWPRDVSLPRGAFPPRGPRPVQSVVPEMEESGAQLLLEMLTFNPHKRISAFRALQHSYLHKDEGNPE
# Chain of CDK4/cyclin D3 (P30281 whole entry partner, species assumed): as the sequence (P30281 whole entry partner, species assumed) above
IC50 (CDK4/cyclin D3),IC50 (CDK2/Cyclin A2),IC50 (CDK6/Cyclin D3),Compound
2 nM,0.2 nM,5 nM,"CC(C)n1nnc2c(F)cc3cnc(NC4CCN(S(C)(=O)=O)CC4)nc3c21 [II.21, 4-fluoro-1-isopropyl-N-(1-(methylsulfonyl)piperidin-4-yl)-1H-[1,2,3]triazolo[4,5-h]quinazolin-8-amine]"
3 nM,0.2 nM,4 nM,"CC(C)n1nnc2cc(F)c3cnc(NC4CCN(S(C)(=O)=O)CC4)nc3c21 [II.22, 5-fluoro-1-isopropyl-N-(1-(methylsulfonyl)piperidin-4-yl)-1H-[1,2,3]triazolo[4,5-h]quinazolin-8-amine]"
3 nM,0.4 nM,9 nM,"CC(C)n1nnc2c(Cl)cc3cnc(NC4CCN(S(C)(=O)=O)CC4)nc3c21 [II.23, 4-chloro-1-isopropyl-N-(1-(methylsulfonyl)piperidin-4-yl)-1H-[1,2,3]triazolo[4,5-h]quinazolin-8-amine]"
4 nM,1 nM,16 nM,"CC(C)n1nnc2c(Br)cc3cnc(NC4CCN(S(C)(=O)=O)CC4)nc3c21 [II.24, 4-bromo-1-isopropyl-N-(1-(methylsulfonyl)piperidin-4-yl)-1H-[1,2,3]triazolo[4,5-h]quinazolin-8-amine]"
3 nM,0.2 nM,5 nM,"[2H]c1cc2cnc(NC3CCN(S(C)(=O)=O)CC3)nc2c2c1nnn2C(C)C [II.25, 1-isopropyl-N-(1-(methylsulfonyl)piperidin-4-yl)-1H-[1,2,3]triazolo [4,5-h]quinazolin-4-d-8-amine]"
3 nM,0.4 nM,8 nM,"Cc1cc2cnc(NC3CCN(S(C)(=O)=O)CC3)nc2c2c1nnn2C(C)C [II.26, 1-isopropyl-4-methyl-N-(1-(methylsulfonyl)piperidin-4-yl)-1H-[1,2,3] triazolo[4,5-h]quinazolin-8-amine]"
3 nM,0.2 nM,5 nM,"CC(C)n1nnc2c(C(F)F)cc3cnc(NC4CCN(S(C)(=O)=O)CC4)nc3c21 [II.27, 4-(difluoromethyl)-1-isopropyl-N-(1-(methylsulfonyl)piperidin-4-yl)-1H-[1,2,3]triazolo[4,5-h]quinazolin-8-amine]"
3 nM,0.2 nM,7 nM,"CCS(=O)(=O)N1CCC(Nc2ncc3cc(C(F)F)c4nnn(C(C)C)c4c3n2)CC1 [II.28, 4-(difluoromethyl)-N-(1-(ethylsulfonyl)piperidin-4-yl)-1-isopropyl-1H-[1,2,3]triazolo[4,5-h]quinazolin-8-amine]"
1 nM,0.2 nM,3 nM,"CC(C)n1nnc2c(C(F)F)cc3cnc(NC4CCN(S(=O)(=O)C5CC5)CC4)nc3c21 [II.29, N-(1-(cyclopropylsulfonyl)piperidin-4-yl)-4-(difluoromethyl)-1-isopropyl-1H-[1,2,3]triazolo[4,5-h]quinazolin-8-amine]"

# Further lines, the compound ahead of its results:
Compound,IC50 (CDK4/cyclin D3),IC50 (CDK2/Cyclin A2),IC50 (CDK6/Cyclin D3)
"CC(C)n1nnc2ccc3cnc(N[C@H]4CC[C@H](N)CC4)nc3c21 [II.1, (1R,4R)-N1-(1-isopropyl-1H-[1,2,3]triazolo[4,5-h]quinazolin-8-yl)cyclohexane-1,4-diamine]",> 500 nM,> 500 nM,> 500 nM
"CC(C)n1nnc2ccc3cnc(N[C@H]4CC[C@H](NC5CCNCC5)CC4)nc3c21 [II.3, (1R,4R)-N^1-(1-isopropyl-1H-[1,2,3]triazolo[4,5-h]quinazolin-8-yl)-N^4-(piperidin-4-yl)cyclohexane-1,4-diamine]",22 nM,12 nM,26 nM
"COCCN[C@H]1CC[C@H](Nc2ncc3ccc4nnn(C(C)C)c4c3n2)CC1 [II.4, (1R,4R)-N^1-(1-isopropyl-1H-[1,2,3]triazolo[4,5-h]quinazolin-8-yl)-N^4-(2-methoxyethyl)cyclohexane-1,4-diamine]",16 nM,20 nM,22 nM
"CC(C)n1nnc2ccc3cnc(N[C@H]4CC[C@H](Nc5ncccn5)CC4)nc3c21 [II.5, (1R,4R)-N^1-(1-isopropyl-1H-[1,2,3]triazolo[4,5-h]quinazolin-8-yl)-N^4-(pyrimidin-2-yl)cyclohexane-1,4-diamine]",22 nM,140 nM,34 nM
"CC(C)n1nnc2ccc3cnc(N[C@H]4CC[C@H](N(C)C)CC4)nc3c21 [II.6, (1R,4R)-N^1-(1-isopropyl-1H-[1,2,3]triazolo[4,5-h]quinazolin-8-yl)-N^4,N^4-dimethylcyclohexane-1,4-diamine]",10 nM,35 nM,12 nM
"CC(C)n1nnc2ccc3cnc(N[C@H]4CC[C@H](N5CCN(C6CCCC6)CC5)CC4)nc3c21 [II.7, N-((1R,4R)-4-(4-cyclopentylpiperazin-1-yl)cyclohexyl)-1-isopropyl-1H-[1,2,3]triazolo[4,5-h]quinazolin-8-amine]",40 nM,465 nM,26 nM
"CC(C)n1nnc2ccc3cnc(N[C@H]4CC[C@H](N5CCN(C(=O)C6CC6)CC5)CC4)nc3c21 [II.9, Cyclopropyl(4-((1R,4R)-4-((1-isopropyl-1H-[1,2,3]triazolo [4,5-h]quinazolin-8-yl)amino)cyclohexyl)piperazin-1-yl) ketone]",26 nM,356 nM,35 nM
"CC(C)n1nnc2ccc3cnc(N[C@H]4CC[C@H](N5CCN(C(=O)c6ccccc6)CC5)CC4)nc3c21 [II.10, (4-((1R,4R)-4-((1-isopropyl-1H-[1,2,3]triazolo[4,5-h]quinazolin-8-yl)amino)cyclohexyl)piperazin-1-yl)(phenyl) ketone]",22 nM,336 nM,46 nM
"CC(C)n1nnc2ccc3cnc(NC4CCC(NS(C)(=O)=O)CC4)nc3c21 (stereo not drawn) [II.11, N-(4-((1-isopropyl-1H-[1,2,3]triazolo[4,5-h]quinazolin-8-yl)amino)cyclohexyl)methanesulfonamide]",8 nM,1 nM,15 nM
"CC(C)n1nnc2ccc3cnc(NC4CCNCC4)nc3c21 [II.12, 1-isopropyl-N-(piperidin-4-yl)-1H-[1,2,3]triazolo[4,5-h] quinazolin-8-amine]",51 nM,151 nM,89 nM
"CC(C)n1nnc2ccc3cnc(NC4CCN(C)CC4)nc3c21 [II.13, 1-isopropyl-N-(1-methylpiperidin-4-yl)-1H-[1,2,3]triazolo [4,5-h]quinazolin-8-amine]",41 nM,110 nM,90 nM
"CC(C)n1nnc2ccc3cnc(NC4CCN(S(C)(=O)=O)CC4)nc3c21 [II.14, 1-isopropyl-N-(1-(methylsulfonyl)piperidin-4-yl)-1H-[1,2,3] triazolo[4,5-h]quinazolin-8-amine]",3 nM,0.2 nM,5 nM
"CCS(=O)(=O)N1CCC(Nc2ncc3ccc4nnn(C(C)C)c4c3n2)CC1 [II.15, N-(1-(ethylsulfonyl)piperidin-4-yl)-1-isopropyl-1H-[1,2,3] triazolo[4,5-h]quinazolin-8-amine]",3 nM,0.3 nM,4 nM
"CC(C)n1nnc2ccc3cnc(NC4CCN(S(=O)(=O)C5CC5)CC4)nc3c21 [II.16, N-(1-(cyclopropylsulfonyl)piperidin-4-yl)-1-isopropyl-1H-[1,2,3]triazolo[4,5-h]quinazolin-8-amine]",3 nM,0.2 nM,5 nM
"CC(C)n1nnc2ccc3cnc(NC4CCN(S(=O)(=O)CC5CC5)CC4)nc3c21 [II.17, N-(1-((cyclopropylmethyl)sulfonyl)piperidin-4-yl)-1-iso-propyl-1H-[1,2,3]triazolo[4,5-h]quinazolin-8-amine]",8 nM,1 nM,15 nM
"COCCS(=O)(=O)N1CCC(Nc2ncc3ccc4nnn(C(C)C)c4c3n2)CC1 [II.18, 1-isopropyl-N-(1-((2-methoxyethyl)sulfonyl)piperidin-4-yl)-1H-[1,2,3]triazolo[4,5-h]quinazolin-8-amine]",3 nM,1 nM,8 nM
"CC(C)n1nnc2ccc3cnc(NC4CCN(S(=O)(=O)C(F)F)CC4)nc3c21 [II.19, N-(1-((difluoromethyl)sulfonyl)piperidin-4-yl)-1-isopropyl-1H-[1,2,3]triazolo[4,5-h]quinazolin-8-amine]",3 nM,0.4 nM,4 nM
"CNS(=O)(=O)N1CCC(Nc2ncc3ccc4nnn(C(C)C)c4c3n2)CC1 [II.20, 4-((1-isopropyl-1H-[1,2,3]triazolo[4,5-h]quinazolin-8-yl)amino)-N-methylpiperidin-1-sulfamide]",4 nM,0.2 nM,12 nM
